# PMC4129416, “YLT192, a Novel, Orally Active Bioavailable Inhibitor of VEGFR2 Signaling with Potent Antiangiogenic Activity and Antitumor Efficacy in Preclinical Models” (Scientific Reports, 2014)
# Experiments:
# A375 = assay: Inhibition of tumor cell growth; format: cell-based; settings: A-375; A375, human melanoma; 48 hour treatment; means ± SD, n=3
# Experimental: (§1) The proliferative inhibitory ability of YLT192 on tumor cells was investigated. […] Inhibition of cell proliferation is a possible approach for cancer treatment. EdU incorporation assay was performed to investigate the anti-proliferative effects of YLT192 against U251 and HCT116 cells. […]
# (§2) treatment with YLT192. Data are means ± SD, n=3. cell line cell type IC50(μM)
# (§3) HCT116 human colorectal carcinoma 7.4 ±0.5
# (§4) A431 human pidermoid carcinoma 7.7 ±0.9
# (§5) BxPC-3 human pancreatic cancer 8.2 ±0.6
# (§6) Hep G2 human hepatocellular carcinoma 7.9 ±0.5
# (§7) SW620 human colorectal carcinoma 7.9 ±1.7
# (§8) SKOV-3 human ovarian carcinoma 8.2 ±1.5
# (§9) LS147T human colorectal carcinoma 9.0 ±1.1
# (§10) PANC-1 human pancreatic cancer 9.8 ±1.9
# (§11) BEL7402 human hepatocellular carcinoma 11.3 ±1.1
# (§12) MDA-MB-231 human mammary carcinoma 11.9 ±2.1
# (§13) SMMC-7721 human hepatocellular carcinoma 12.1 ±1.6
# (§14) SPC-A1 human lung cancer 16.4 ±1.4
# (§15) MCF-7 human mammary carcinoma 16.8 ±1.7
# (§16) Hela human epithelial carcinoma 18.9 ±2.4
# (§17) MV4-11 human acute myeloid leukemia 21.9 ±1.9
# (§18) COLO-205 human colorectal carcinoma 23.0 ±1.5
# B16 = assay: Inhibition of tumor cell growth; format: cell-based; settings: B16, mouse melanoma; 48 hour treatment; means ± SD, n=3
# Experimental: as §1, §2, §3, §4, §5, §6, §7, §8, §9, §10, §11, §12, §13, §14, §15, §16, §17, §18
# DU145 = assay: Inhibition of tumor cell growth; format: cell-based; settings: DU-145; DU145, human prostate cancer; 48 hour treatment; means ± SD, n=3
# Experimental: as §1, §2, §3, §4, §5, §6, §7, §8, §9, §10, §11, §12, §13, §14, §15, §16, §17, §18
# NIH-H1975 = assay: Inhibition of tumor cell growth; format: cell-based; settings: NIH-H1975, human lung cancer; 48 hour treatment; means ± SD, n=3
# Experimental: as §1, §2, §3, §4, §5, §6, §7, §8, §9, §10, §11, §12, §13, §14, §15, §16, §17, §18
# U251 = assay: Inhibition of tumor cell growth; format: cell-based; settings: U-251; U251, human glioblastoma; 48 hour treatment; means ± SD, n=3
# Experimental: as §1, §2, §3, §4, §5, §6, §7, §8, §9, §10, §11, §12, §13, §14, §15, §16, §17, §18
# A2058 = assay: Inhibition of tumor cell growth; format: cell-based; settings: A2058, human melanoma; 48 hour treatment; means ± SD, n=3
# Experimental: (§19) The proliferative inhibitory ability of YLT192 on tumor cells was investigated. […] Inhibition of cell proliferation is a possible approach for cancer treatment. EdU incorporation assay was performed to investigate the anti-proliferative effects of YLT192 against U251 and HCT116 cells.
# (§20) treatment with YLT192. Data are means ± SD, n=3.
# A875 = assay: Inhibition of tumor cell growth; format: cell-based; settings: A875, human melanoma; 48 hour treatment; means ± SD, n=3
# Experimental: as §19, §20
# U251 cells = assay: Western blot of oncogenic signaling pathways; format: cell-based, human; settings: 48 h
# Experimental: Figure 4 Inhibitory effects of YLT192 on tumor cells. (A) YLT192 inhibited U251 and HCT116 cells proliferation. The EdU incorporation assay was conducted on U251 and HCT116 cells after treated with YLT192 for 24 hours. The EdU-positive (red fluorescent staining) cells and Hoechst staining (blue fluorescent staining) cells represented proliferating and total cells in the fluorescent images, respectively (100×). Quantification was shown on the right panels. (B) YLT192 induced apoptosis of HCT116 cells. HCT116 cells were treated with YLT192 or vehicle for 48 hours followed by flow cytometric analysis of annexin V-FITC and PI staining. […] Typical apoptosis-related proteins caspase 3 and Bax were detected by western blot. […] U251 and HCT116 cells were treated with YLT192 or vehicle for 48 hours and the expression of protein in different signaling pathways were detected by western blot with specific antibodies. […]
# To gain further insight into the molecular mechanism of the inhibitory effects of YLT192 on tumor cells we evaluated the expression of p44/42 MAPK, STAT3, AKT, and mammalian target of rapamycin (mTOR) in U251 and HCT116 cells 48 h after treatment.
# Supplementary Figure S8. […] U251 and HCT116 cells were treated with YLT192 or vehicle for 48 hours and the expression of protein in different signaling pathways were detected by western blot with specific antibodies. […]
# [1] = Pharmacokinetics in male wistar rats; format: in vivo
# Excerpt: Appropriate pharmacokinetic parameters are essential to determine the efficacy of anti-cancer drugs. We determined the pharmacokinetic characteristics of YLT192 in male wistar rats. The pharmacokinetic parameters of YLT192 are summarized in Supplementary Table S2 and the plasma concentration versus time profile is shown in Supplementary Figure S3.
# Supplementary Table S2: Pharmacokinetic parameters for YLT192 in rats (n=6 mice per group). Data are means ± SD. […]
# Note: I.V.=intravenous, P.O.=orally administration, Cmax =maximum plasma concentration, AUC=area under the curve, T1/2=half life of the inhibitor, CL=clearance , Vz=volume of distribution, F=bioavailability
# Supplementary Figure S3. Mean plasma concentration-time curves of YLT192.
# After I.V.(20mg/kg) and P.O.(50mg/kg) administration of YLT192 in wistar male rats, the concentration of YLT192 in the plasma was determined by HPLC (n=6 mice per group). Data are means ± SD.
# [2] = male, Wistar, rat, plasma, po, 50 mg/kg, P.O. 50 mg/kg, means ± SD, n=6
smiles,measurement,setting,value
CNC(=O)c1cc(Oc2ccc(NC(=O)c3cccc(OC)c3)cc2)ccn1 [YLT192],IC50,A375,12.4 ± 1.1 µM
same,IC50,B16,21.2 ± 2.1 µM
same,IC50,DU145,22.8 ± 2.6 µM
same,IC50,NIH-H1975,27.3 ± 1.2 µM
same,IC50,U251,6.5 ± 0.8 µM
same,IC50,A2058,10.7 ± 1.1 µM
same,IC50,A875,14.1 ± 2.1 µM
same,"expression of phosphorylated p44/42 MAPK, STAT3, AKT, and mTOR",U251 cells,dramatically decreased
same,Vz,"[1]; P.O. 50 mg/kg, means ± SD, n=6",7.84 ± 1.12 L/kg
same,half-life,"[1]; male, Wistar, rat, plasma, iv, 20 mg/kg, I.V. 20 mg/kg, means ± SD, n=6",4.1 ± 2.1 h
same,AUC(0-inf),"[1]; male, Wistar, rat, plasma, iv, I.V. 20 mg/kg, means ± SD, n=6",65900 ± 6200 ng·h/mL
same,Vd,"[1]; male, Wistar, rat, plasma, iv, I.V. 20 mg/kg, means ± SD, n=6, read-out: Vz",1.79 ± 0.24 L/kg
same,bioavailability,"[1]; male, Wistar, rat, plasma, oral, P.O. 50 mg/kg vs I.V. 20 mg/kg, read-out: F (oral bioavailability)",50.5%
same,Cmax,[1]; [2],4100 ± 400 ng/mL
same,half-life,[1]; [2],9.1 ± 4.1 h
same,AUC(0-inf),"[1]; male, Wistar, rat, plasma, po, P.O. 50 mg/kg, means ± SD, n=6",83300 ± 21900 ng·h/mL
